According to patent US6214801A, “Imidazo[1,2-a]pyridine C-nucleosides as antiviral agents” (The Regents of the University of Michigan, priority 1999, dated 2001):
Entries after “also recorded” stand apart in the source; their conditions may differ. Like-named read-outs stand apart in the source and are kept apart here.

What was measured:
HCMV [1] = assay: HCMV plaque (focus) reduction assay in HFF cells; format: cell-based; details: read-out: 50% Inhibitory Concentration IC50, Antiviral Activity, HCMV (plaque assay in HFF cells)
Experimental: (§1) KB cells (available from the American Type Culture Collection (ATCC) 12301 Parklawn Drive, […], Md. 20852 (ATCC CCL 17)), an established human cell line derived from an epidermal oral carcinoma, were grown in minimal essential medium (MEM) (Sigma) with Hanks salts (MEM(H)) supplemented with 5% fetal calf serum. Human foreskin fibroblasts (HFF cells) (provided by the University of Michigan Hospital) and African green monkey kidney cells (BSC-1) (ATTC CCL 26) cells were grown in MEM with Earl salts (MEM(E)) supplemented with 10% fetal bovine serum. Cells were passaged according to conventional procedures and as described in Shipman, C., Jr. et al. (1976) Antimicrob. Agents Chemother. Vol. 9:120 and incorporated herein by reference. Briefly, cells were passaged at 1:2 to 1:10 dilutions according to conventional procedures by using 0.05% trypsin plus 0.02% EDTA in a HEPES buffered salt solution. HFF cells were passaged onlv at 1:2 dilutions.
(§2) A plaque purified isolate, Po, of the Towne strain of HCMV was used in all experiments and was a gift of Dr. Mark Stinski, University of Iowa. The KOS strain of HSV-1 was used and was provided by Dr. Sandra K. Weller, University of Connecticut. Stock preparations of HCMV and HSV-1 were prepared and titered as known to those of skill and the art and described in Turk, S. R. et al. (1987) Antimicrob. Agents Chemother. Vol. 31:544-550 and Shipman, C., Jr., et al. (1990) J. Virol. Methods Vol. 28:101-106, each incorporated herein by reference.
Stock HCMV was prepared by infecting HFF cells at a multiplicity of infection (m.o.i.) of less that 0.01 plaque-forming units (p.f.u.) per cell. Cell growth medium was changed every four days until cytopathology was evident in all cells (approximately 21 days). Supernatant fluids were retained as the virus stock. Four days later, the remaining cells were disrupted by three cycles of freeze-thawing and the cell plus medium held as an additional source of virus. Storage was in liquid nitrogen.
HCMV was titered in 24-well cluster dishes which were plated to contain 5×10^4 HFF cells/well, grown as described above. When the cells were 70 to 80% confluent, 0.2 ml of the virus suspension was added per well and adsorbed as described above. At least three ten-fold dilutions of each preparation were used. Following virus adsorption, the cell sheets were overlayed with 0.5% methocel (4000 CPS) in maintenance medium [MEM(E) with 1.1 g/liter NaHCO3, 100 units/ml penicillin G, 100 μg/ml streptomycin, and 5% fetal bovine serum]. The cultures were incubated in a humidified atmosphere of 4% CO2 -96% air. Viral plaques were visible 5 to 7 days after infection using at least 10-fold magnification. Cells were fixed and stained by a 10-minute exposure to a 0.1% solution of crystal violet in 20% methanol 7 to 12 days after infection. Microscopic foci were enumerated at 20-fold magnification using a Nikon Profile Projector.
(§3) HCMV plaque reduction experiments were performed with monolayer cultures of HFF cells by a procedure similar to that referenced above for titration of the viruses and described in Devivar, R. V. et al. (1994) J. Med. Chem. Vol. 37:2942-2949. Activity of compounds against HSV-1 was evaluated using an ELISA assay.
The effect of compounds of the replication of HCMV was measured using a plaque (focus) reduction assay. For the former, HFF cells in 24-well culture dishes were infected with approximately 50 p.f.u. of HCMV per well using the procedures detailed above. Compounds dissolved in growth medium were added in four to six selected concentrations to duplicate wells following virus adsorption. Following incubation at 37 °C for 7 to 10 days, cell sheets were fixed, stained and microscopic plaques were enumerated as described above. Drug effects were calculated as a percentage of reduction in number of plaques in the presence of each drug concentration compared to the number observed in the absence of drug. […]

HIV-1 = HIV-1 replication, reverse transcriptase (RT) assay in CEM cells; format: cell-based, HIV-1 strain IIIB; details: CEM cells, strain IIIB
Experimental: (§4) CEM cells and strain IIIB of HIV-1 were obtained through courtesy of Dr. Louis S. Kurcera, Boman Gray School of Medicine, Wake Forest University. CEM cells were grown in suspension culture and passaged through conventional procedures.
The activity of compounds against HIV-1 replication was determine by using reverse transcriptase (RT) as a marker for HIV-1. Strain IIIB of HIV-1 was grown in CEM cells maintained in suspension culture as detailed previously (see Kucera et al. AIDS Res. Human Retroviruses, 1993, Vol. 9, pp. 307-314). The assay measured the presence of HIV in supernatants of infected CEM cells by determining the amount of RT activity. Cells were grown, infected with HIV-1, and incubated in the presence of seven concentrations (one-half log10 dilutions) of the test compounds beginning at 1 or 100 μM concentration, depending on the compound to be assayed. Procedures and the RT assay were performed as detailed previously (see White et al., Antiviral Res. 1991, Vol. 16, pp. 257-266).

HSV-1 = HSV-1 ELISA assay; format: cell-based, herpes simplex virus type 1, KOS strain; details: Human alphaherpesvirus 1; read-out: 50% Inhibitory Concentration IC50, Antiviral Activity, HSV-1 (ELISA assay)
Experimental: as §1, §2
Briefly, high titer HSV-1 stocks were prepared as follows. Nearly confluent monolayer cultures of KB cells were grown in 32 oz. glass bottles containing MEM(E) buffered with 25 mM HEPES and supplemented with 5% fetal bovine serum and 0.127 giliter L-arginine (VGM, virus growth medium). The cultures were infected at a low input multiplicity to reduce the formation of defective virus. After cell cytopathology reached "three to four plus", the cells were harvested by vigorous shaking, and concentrated by centrifugation (800×g for 5 min.). The resulting virus pools were stored at -760C until retrieved for use in experiments.
HSV-1 was titered using monolayer cultures of BSC-1 cells. Cells were planted at 3×10^5 cells/well using 6-well cluster dishes. MEM(E) supplemented with 10% fetal bovine serum was employed as medium. After 22-24 h, cells were 90% confluent and were inoculated in triplicate using at least three ten-fold dilutions with 0.2 ml of the virus suspension to be assayed and incubated in a humidified 4% CO2 -[…] atmosphere for one hour to permit viral adsorption. Following virus adsorption, the cell sheet was overlayed with 5 ml of MEM(E) with 5% serum plus 0.5% methocel (4000 CPS) and incubated an additional two to three days. Cells were fixed and stained with 0.1% crystal violet in 20% methanol and macroscopic plaques enumerated.
as §3
ELISA techniques according to standard procedures were also used to determine activity against HSV-1. Drug effects were calculated as a percentage of the reduction in virus titers in the presence of each drug concentration compared to the titer obtained in the absence of drug. Ganciclovir was used as a positive control in all experiments.

[2] = Growth cytotoxicity in CEM cells; format: cell-based; details: human, read-out: 50% Inhibitory Concentration IC50, Cytotoxicity, Growth (CEM cells)
Experimental: as §4

[3] = Growth cytotoxicity in KB cells (crystal violet staining); format: cell-based; details: human, two population doubling times, read-out: 50% Inhibitory Concentration IC50, Cytotoxicity, Growth (KB cells)
Experimental: as §1
(§5) Two different methods were used to evaluate cytotoxicity of the compounds. First, cytotoxicity produced in stationary HFF cells was determined by microscopical examination of cells not affected by the virus used in the plaque assay. Second the effect of compounds on KB cells during two population doubling times was determined by crystal violet staining and spectrophotometric quantitation of dye eluted from stained cells. This method has been utilized for the analysis of ganciclovir and zidovudine (See Prichard, M. N. et al. Antiviral Res. (1991) Vol. 35:1060-1065).

in vitro = format: cell-based, human; details: human, hff cells
Experimental: as §1, §5

HCMV [4] = details: background; cited from earlier work
[5] = background; cited from earlier work

| Structure (SMILES) | IC50 (HCMV [1]; Human betaherpesvirus 5, HFF) | 50% Inhibitory Concentration IC50, Antiviral Activity, HIV-1 (RT Assay) (HIV-1) | IC50 (HSV-1) | CC50 [2] | CC50 [3] | CC50 (in vitro) | antiviral activity of known compounds (in words) (HCMV [4]) | cytotoxicity of known compounds (in words) [5] | IC50 (HCMV [1]; Human betaherpesvirus 5, HFF cells, 7 to 10 days) |
| --- | --- | --- | --- | --- | --- | --- | --- | --- | --- |
| OC[C@@H]1C=C[C@H](c2c(Cl)nc3cc(Cl)c(Cl)cn23)O1 [Compound 76, 2,6,7-Trichloro-3-(2',3'-dideoxy-2',3'-didehydro-β-D-ribofuranosyl) imidazo[1,2-a] pyridine] | 32 µM | 14/25 | > 100 µM | > 100 µM | > 100 µM | 100 µM | – | – | – |
| OC[C@H]1O[C@@H](n2cnc3cc(Cl)c(Cl)cc32)[C@H](O)[C@@H]1O [DRB, 5,6-dichloro-1-(β-D-ribofuranosyl) benzimidazole] | – | – | – | – | – | – | only marginal levels of activity | generally unacceptable levels of cytotoxicity | – |
| OC[C@H]1O[C@@H](n2c(Cl)nc3cc(Cl)c(Cl)cc32)[C@H](O)[C@@H]1O [TCRB, 2,5,6-trichloro-1-(2'-β-D-ribofuranosyl)benzimidazole] | – | – | – | – | – | 15 µM | useful against HCMV infections; also recorded: very potent activity against HCMV | low cellular toxicity at concentrations inhibiting viral growth | 9.5 µM |
